Drawing on patent EP0287819A1, “5-(phenyl or phenoxyalkyl)-3-(2-furanyl or 2-thienyl)-3-(1H-imidazol-1-ylmethyl)-2-methylisoxazolidines” (FISONS CORPORATION, priority 1987, dated 1988), this text covers inhibitory activity, activity and MIC for five molecules.

Test in all cases: in vitro antifungal activity, broth and agar testing techniques
Common to all, as to assay type: cell-based

The test system of one assay is Candida albicans. The conditions noted are these: for inhibitory activity: in vitro; for MIC: one range stated jointly for Examples 5, 6 and 10 and the three fungi, read-out: minimum inhibitory concentration MIC. From the text:
(§1) The compounds of this invention are useful as antifungal agents.

For the next assay, the system named is Epidermophyton floccosum.
From the text: as §1

For assay [1], the system named is Trichophyton mentagrophytes.
From the text: as §1

Assay [2] relates to Trichophyton schoenleinii.
From the text: as §1

A further assay has as its system Trichophyton tonsurans.
From the text: as §1

The subject of a further assay is Aspergilius fumigatus. To be noted: for activity: in vitro; for MIC: one range stated jointly for Examples 5, 6 and 10 and the three fungi, read-out: minimum inhibitory concentration MIC.
From the text: as §1

A further assay relates to Trichophyton rubrum. To be noted: for activity: in vitro; for MIC: one range stated jointly for Examples 5, 6 and 10 and the three fungi, read-out: minimum inhibitory concentration MIC.
From the text: as §1

≈ marks a conversion by molar mass, not a printed value.

For `CN1OC(COc2ccc(Cl)cc2)CC1(Cn1ccnc1)c1ccco1` (single isomer, unassigned) [Example 3, 5-(4-Chlorophenoxymethyl)-3-(2-furanyl)-3-(1H-imidazol-1-ylmethyl)-2-methylisoxazolidine], the inhibitory activity entry (with Candida albicans; with Epidermophyton floccosum; in assay [1]; in assay [2]; in the assay with Trichophyton tonsurans) was “good to moderate” each time.
For `CN1OC(c2ccccc2)CC1(Cn1ccnc1)c1cccs1` (single isomer, unassigned) [Example 5, 3-(1H-Imidazol-1-ylmethyl)-2-methyl-5-phenyl-3-(2-thienyl)isoxazolidine], in the assay on Aspergilius fumigatus, the activity entry was “good to moderate” and the MIC fell in the range of 0.2 to 70 µg/mL (≈ 0.615 to 215 µM). In addition, in the assay with Candida albicans, the inhibitory activity result is recorded as “good to moderate” and the MIC lay in the range of 0.2 to 70 µg/mL (≈ 0.615 to 215 µM). In the assay with Trichophyton rubrum, the activity result was “good to moderate” and the MIC was in the range of 0.2 to 70 µg/mL (≈ 0.615 to 215 µM).
In the case of `Cc1ccc(SCC2CC(Cn3ccnc3)(c3cccs3)N(C)O2)cc1` (single isomer, unassigned) [Example 10, 3-(1H-Imidazol-1-ylmethyl)-2-methyl-5-[[(4-methylphenyl)thio]methyl]-3-(2-thienyl)isoxazolidine], the activity entry in the assay with Aspergilius fumigatus and in the assay with Trichophyton rubrum was “good to moderate” throughout. The MIC with Aspergilius fumigatus, with Candida albicans and in the assay with Trichophyton rubrum was 0.2 to 70 µg/mL (≈ 0.519 to 182 µM) in each case. Moreover, the inhibitory activity result in the assay on Candida albicans is listed as “good to moderate”.
Turning to `CN1OC(c2ccc(Cl)cc2)CC1(Cn1ccnc1)c1ccco1` (single isomer, unassigned) [Example 1, 5-(4-Chlorophenyl)-3-(2-furanyl)-3-(1H-imidazol-1-ylmethyl) -2-methylisoxazolidine], the inhibitory activity result (in the assay on Candida albicans; in the assay on Epidermophyton floccosum; in assay [1]; in assay [2]; with Trichophyton tonsurans) was “good to moderate” each time.
Consider `CN1OC(c2ccc(Cl)cc2)CC1(Cn1ccnc1)c1cccs1` (single isomer, unassigned) [Example 6, 5-(4-Chlorophenyl)-3-(1H-imidazol-1-ylmethyl)-2-methyl-3-(2-thienyl)isoxazolidine], for which, in the assay with Aspergilius fumigatus, the activity entry is on record as “good to moderate” and the MIC lay in the range of 0.2 to 70 µg/mL (≈ 0.556 to 195 µM). For the same molecule, in the assay on Candida albicans, the inhibitory activity entry is “good to moderate” and the MIC lay in the range of 0.2 to 70 µg/mL (≈ 0.556 to 195 µM). In addition, in the assay with Trichophyton rubrum, the activity result was “good to moderate” and the MIC fell in the range of 0.2 to 70 µg/mL (≈ 0.556 to 195 µM).
